Source: BindingDB's records for doi:10.1021/jm020056z (University of Newcastle, 2002)
pIC50: −log10 of the molar value.

Columns and labels:
[1] = biological target: T1, Cyclin-A2 [171-432]/Cyclin-dependent kinase 2 (Homo sapiens, UniProt P24941); assay: Kinase Inhibition Assay
T1 construct: 171-432

[2] = biological target: Cyclin-dependent kinase 1/G2/mitotic-specific cyclin-B (Marthasterias glacialis, UniProt P15206+Q9DGD3); assay: Kinase Inhibition Assay
Chain of Cyclin-dependent kinase 1/G2/mitotic-specific cyclin-B (Q9DGD3 whole entry): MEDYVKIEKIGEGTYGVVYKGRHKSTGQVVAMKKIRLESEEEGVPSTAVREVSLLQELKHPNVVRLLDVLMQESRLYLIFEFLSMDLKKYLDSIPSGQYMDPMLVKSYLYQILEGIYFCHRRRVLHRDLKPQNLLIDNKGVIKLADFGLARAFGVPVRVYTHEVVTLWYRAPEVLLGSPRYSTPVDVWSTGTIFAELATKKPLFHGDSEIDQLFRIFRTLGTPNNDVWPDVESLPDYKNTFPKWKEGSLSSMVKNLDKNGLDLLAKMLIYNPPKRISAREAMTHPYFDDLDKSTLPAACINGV
Chain of Cyclin-dependent kinase 1/G2/mitotic-specific cyclin-B (P15206 whole entry): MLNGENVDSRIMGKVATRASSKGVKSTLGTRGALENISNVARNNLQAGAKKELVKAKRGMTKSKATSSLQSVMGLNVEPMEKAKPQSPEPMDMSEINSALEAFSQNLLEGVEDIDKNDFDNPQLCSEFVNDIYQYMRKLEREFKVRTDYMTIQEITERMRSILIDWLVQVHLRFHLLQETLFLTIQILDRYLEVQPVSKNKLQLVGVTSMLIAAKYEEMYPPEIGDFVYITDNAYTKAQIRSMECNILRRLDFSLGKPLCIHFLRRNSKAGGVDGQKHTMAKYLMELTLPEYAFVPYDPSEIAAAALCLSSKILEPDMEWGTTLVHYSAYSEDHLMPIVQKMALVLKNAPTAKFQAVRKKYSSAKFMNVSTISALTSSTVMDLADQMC

Row | SMILES | pIC50 [1] | pIC50 [2]
1 | Nc1nc(OCC2CC=CCC2)c2[nH]cnc2n1 (stereo not drawn) | 4.80 | –
2 | CCOC(C)(COc1nc(N)nc2[nH]cnc12)OCC | 4.48 | 4.44
